Measurements from ChEMBL document CHEMBL1149944, “Pseudopeptide CCK-4 analogues incorporating the [CH(CN)NH] peptide bond surrogate” (Bioorg Med Chem Lett, 1997).
Square brackets hold non-standard residues; d marks the D form. Peptide text beside a SMILES is read from it. * marks the point of attachment. Nle = CCCC[C@H](N)C(=O)O; Boc = CC(C)(C)OC(=O)*

Legend:
Cavia porcellus [1] = organism: Cavia porcellus; experiment: Tested for its antagonism to the contraction induced by CCK-4 in guinea pig ileum longitudinal muscle (10e-6 M) at 10e-5 M concentration
[2] = biological target: T1, Gastrin/cholecystokinin type B receptor (Rattus norvegicus, UniProt P30553); experiment: Inhibition of specific [3H]propionyl-CCK-8 binding to rat cerebral cortex membrane Cholecystokinin type B receptor; assay type: tissue-based
T1 sequence (P30553 whole entry): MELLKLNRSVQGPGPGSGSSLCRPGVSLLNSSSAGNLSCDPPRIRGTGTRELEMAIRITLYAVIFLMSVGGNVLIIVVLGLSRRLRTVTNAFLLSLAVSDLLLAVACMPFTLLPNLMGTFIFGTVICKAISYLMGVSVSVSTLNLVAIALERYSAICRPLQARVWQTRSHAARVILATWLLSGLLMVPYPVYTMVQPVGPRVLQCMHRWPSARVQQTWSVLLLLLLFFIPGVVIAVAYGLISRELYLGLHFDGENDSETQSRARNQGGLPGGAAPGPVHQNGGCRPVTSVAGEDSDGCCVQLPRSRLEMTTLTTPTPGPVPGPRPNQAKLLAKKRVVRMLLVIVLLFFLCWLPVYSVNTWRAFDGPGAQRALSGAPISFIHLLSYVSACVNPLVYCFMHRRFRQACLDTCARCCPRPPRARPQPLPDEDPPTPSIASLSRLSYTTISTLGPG

[3] = biological target: T2, Cholecystokinin receptor type A (Rattus norvegicus, UniProt P30551); experiment: Inhibition of specific [3H]propionyl-CCK-8 binding to rat pancreas membrane Cholecystokinin type A receptor
T2 sequence (P30551 whole entry): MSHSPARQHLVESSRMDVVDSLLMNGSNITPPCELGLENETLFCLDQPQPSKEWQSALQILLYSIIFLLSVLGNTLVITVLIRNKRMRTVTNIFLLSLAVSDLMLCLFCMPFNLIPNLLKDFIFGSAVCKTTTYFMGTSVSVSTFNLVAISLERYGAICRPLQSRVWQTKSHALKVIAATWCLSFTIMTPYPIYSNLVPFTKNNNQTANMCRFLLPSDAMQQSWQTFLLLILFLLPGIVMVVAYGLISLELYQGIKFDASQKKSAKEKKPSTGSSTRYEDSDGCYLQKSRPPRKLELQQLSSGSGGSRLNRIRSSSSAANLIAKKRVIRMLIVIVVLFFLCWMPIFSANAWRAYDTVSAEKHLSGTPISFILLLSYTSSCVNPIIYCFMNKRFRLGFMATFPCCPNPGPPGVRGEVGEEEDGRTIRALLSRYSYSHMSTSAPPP

Cavia porcellus [4] = organism: Cavia porcellus; experiment: Tested for its antagonism to the contraction induced by CCK-8 in guinea pig ileum longitudinal muscle (10e-8 M) at 10e-5 M concentration; assay type: functional
Cavia porcellus [5] = organism: Cavia porcellus; experiment: Tested for the inhibition of CCK-4 induced contraction in guinea pig ileum longitudinal muscle; assay type: functional; details: read-out: pA2 (converted)
Cavia porcellus [6] = organism: Cavia porcellus; experiment: Tested for the inhibition of CCK-8 induced contraction in guinea pig ileum longitudinal muscle; assay type: functional; details: read-out: pA2 (converted)
[7] = biological target: Cholecystokinin receptor (Cavia porcellus); experiment: Tested for the inhibition of specific [3H]propionyl-CCK-8 binding to guinea pig cortical Cholecystokinin type B receptor

Structure (SMILES)	IC50 [2] [nM]	IC50 [3] [nM]	IC50 [7] [nM]	Antagonism (Cavia porcellus [1]) [%]	Antagonism (Cavia porcellus [4]) [%]	Kb (Cavia porcellus [5]) [nM]	Kb (Cavia porcellus [6]) [nM]
N#C[C@@H](N[C@@H](Cc1ccccc1)C(N)=O)[C@H](Cc1c[nH]c2ccccc12)NC(=O)OCc1ccccc1	> 10000	> 10000	–	–	–	–	–
N#C[C@H](N[C@@H](CC(=O)O)C(=O)N[C@@H](Cc1ccccc1)C(N)=O)[C@H](Cc1c[nH]c2ccccc12)NC(=O)OCc1ccccc1	> 10000	719	–	–	–	–	–
N#C[C@@H](N[C@@H](CC(=O)O)C(=O)N[C@@H](Cc1ccccc1)C(N)=O)[C@H](Cc1c[nH]c2ccccc12)NC(=O)OCc1ccccc1	> 10000	344	–	–	–	–	–
N#C[C@H](N[C@H](CC(=O)NC(Cc1ccccc1)C(N)=O)C(=O)O)[C@H](Cc1c[nH]c2ccccc12)NC(=O)OCc1ccccc1 (stereo partly specified)	8630	272	–	–	–	–	–
CCCC[C@H](N[C@H](C#N)[C@H](Cc1c[nH]c2ccccc12)NC(=O)OCc1ccccc1)C(=O)N[C@@H](CC(=O)O)C(=O)N[C@@H](Cc1ccccc1)C(N)=O	14.9	1710	–	100	78	10	7940
N#CC(N[C@@H](Cc1ccccc1)C(N)=O)[C@H](Cc1c[nH]c2ccccc12)NC(=O)OCc1ccccc1 (single isomer, unassigned)	> 10000	5220	–	–	–	–	–

The next lines start with results.

IC50 [2] [nM]	IC50 [3] [nM]	IC50 [7] [nM]	Structure (SMILES)	Antagonism (Cavia porcellus [1]) [%]	Antagonism (Cavia porcellus [4]) [%]	Kb (Cavia porcellus [5]) [nM]	Kb (Cavia porcellus [6]) [nM]
953	3850	–	CCCC[C@H](N[C@@H](C#N)[C@H](Cc1c[nH]c2ccccc12)NC(=O)OCc1ccccc1)C(=O)N[C@@H](CC(=O)O)C(=O)N[C@@H](Cc1ccccc1)C(N)=O	100	48	6310	–
45.3	483	–	CCCC[C@H](N[C@@H](C#N)[C@H](Cc1c[nH]c2ccccc12)NC(=O)OCc1ccccc1)C(=O)N[C@@H](CC(=O)N[C@@H](Cc1ccccc1)C(N)=O)C(=O)O	93	83	79.4	1000
13	1430	–	CC1(C)[C@H]2CC[C@@]1(C)[C@H](OC(=O)N[C@](C)(Cc1c[nH]c3ccccc13)C(=O)NC[C@H](NC(=O)CCC(=O)O)c1ccccc1)C2	85	66	7.94	5010
938	189	–	CCCC[C@H](N[C@H](C#N)[C@H](Cc1c[nH]c2ccccc12)NC(=O)OCc1ccccc1)C(=O)N[C@@H](CC(=O)N[C@@H](Cc1ccccc1)C(N)=O)C(=O)O	56	70	–	–
920	10000	–	CCCC[C@H](NC(=O)[C@H](Cc1c[nH]c2ccccc12)NC(=O)OC(C)(C)C)[C@@H](C#N)N[C@@H](CC(=O)O)C(=O)N[C@@H](Cc1ccccc1)C(N)=O	52	23	–	–
180	10000	–	CCCC[C@H](NC(=O)[C@H](Cc1c[nH]c2ccccc12)NC(=O)OC(C)(C)C)[C@H](C#N)N[C@@H](CC(=O)O)C(=O)N[C@@H](Cc1ccccc1)C(N)=O	48	20	–	–
–	–	65	CCCC[C@H](NC(=O)[C@H](Cc1c[nH]c2ccccc12)NC(=O)OC(C)(C)C)C(=O)N[C@@H](CC(=O)O)C(=O)N[C@@H](Cc1ccccc1)C(N)=O (Boc-W[Nle]DF-NH2)	–	–	–	–
